Measured values from article PMC3890288, “Toxicity of Functional Nano-Micro Zinc Oxide Tetrapods: Impact of Cell Culture Conditions, Cellular Age and Material Properties” (PLoS ONE, 2014).
Read-outs that look alike come from different tables or passages of the source.

Legend:
[1] = test system: normal human dermal fibroblasts (NHDF); experiment: MTT cell viability (cytotoxicity) assay on NHDF; assay type: cell-based; details: NHDF P6–P9, 50000 cells/cm^2, 24 h treatment
Experimental: Normal human dermal fibroblasts (NHDF) (PromoCell, C12300) were cultured in Quantum 333 (PAA, U15-813) supplemented with 1% (v/v) penicillin/streptomycin (PAA, P11–010). NHDF are human primary cells which were isolated from the dermis of juvenile foreskin or adult skin with different origins (PromoCell). For stock cultures, 750000 cells in 20 ml medium were seeded weekly into a T75 flask (Sarstedt) and kept at 37°C and 5% CO2 in a humidified atmosphere. The medium was changed every two to three days. For sub-culturing, cells were trypsinized by Trypsin/EDTA (PAA, L11-659). Cells were counted under the microscope.
Powder of ZnO-T was scaled and brought for each experiment fresh into dispersion with culture medium at an initial concentration of 10 mg/ml. […]
The MTT assay was used to estimate the viability of cells by measuring the production of formazan mainly through the activity of cellular mitochondrial dehydrogenase. Cell viability was determined accordingly as described in already published paper, [64]. […] Production of formazan by viable cells was estimated after 90 min (37°C, 5% CO2) by measuring the absorbance at a wavelength of 570 nm (photometer 340 ATTC, SLT Lab instruments, Germany). […]
NHDF cells (passage numbers: P10–P14) were seeded into clear flat 96-well microtiter plates (Falcon® 3072) at a cell density of 50.000 cells/cm^2. […] Cell viability was analysed 24 h later. […]

[2] = test system: normal human dermal fibroblasts (NHDF); experiment: MTT cell viability (cytotoxicity) assay on NHDF; assay type: cell-based; details: 24 h treatment, expressed as Zn, read-out: ZnCl2 EC50±SE as Zn (converted)

Structure (SMILES): [Cl-].[Cl-].[Zn+2] [ZnCl2]
- EC50±standard error [1]: 0.036 ± 0.0014 mg/mL
- EC50 ([1]; expressed as zinc, read-out: EC50±standard error in Zn^2+): 130 ± 10 µM
- EC50 ([2]; P11–P15, 25000 cells/cm^2): 100 µM
- EC50 ([2]; P11–P15, 100000 cells/cm^2): 130 µM
- EC50 ([2]; P22–P26, 25000 cells/cm^2): 110 µM
- EC50 ([2]; P22–P26, 100000 cells/cm^2): 120 µM
